Marks after values point to notes of the source that are not given here.
Experiments:
weaned barrows [1] = assay: Example 3: feeding trial in weaned piglets, glutamine and/or glutamic acid added to starter feed; assay type: in vivo
Excerpt: 120 weaned barrows were used and divided into 4 groups (30 animals for each group, 6 replications with 5 animals per replication), namely a control group (C), a glutamine alone administration group (GLN), a glutamic acid alone administration group (GLU) and a glutamine+glutamic acid mixture administration group (GLN+GLU). Piglets were weaned at 17 days of age in average. Also, the GLN group was provided with an experimental feed prepared by adding crystalline glutamine at 1.2% per feed weight to the starter feed, the GLU group with an experimental feed prepared by adding crystalline glutamic acid at 1.2% per feed weight to the starter feed, and the GLN+GLU group with an experimental feed prepared by adding glutamine and glutamic acid at 0.12% and 1.08%, respectively, per feed weight to the starter feed. After two weeks passed, a common feed was fed to all groups. Body weight and residual feed weight were measured to calculate feed intake, body weight gain and feed efficiency on the 14th and 21st days after the weaning.

weaned barrows [2] = assay: Example 2: feeding trial in weaned piglets, nucleic acid and/or glutamic acid added to starter feed; assay type: in vivo
Excerpt: 120 weaned barrows were used and divided into 4 groups (30 animals for each group, 6 replications with 5 animals per replication), namely a control group (C), a nucleic acid alone administration group (N), a glutamic acid alone administration group (G) and a nucleic acid+glutamic acid mixture administration group (N+G). Piglets were weaned at 17 days of age in average. Also, the N group was provided with an experimental feed prepared by adding commercially available ribonucleic acid extracted from beer yeast (manufactured by Kirin Brewery CO., LTD.) at 0.8% per feed weight to the starter feed, the G group with an experimental feed prepared by adding crystalline glutamic acid at 1.2% per feed weight to the starter feed, and the N+G group with an experimental feed prepared by adding ribonucleic acid and glutamic acid at 0.12% and 1.08%, respectively, per feed weight to the starter feed. Body weight and residual feed weight were measured to calculate feed intake, body weight gain and feed efficiency on the 7th and 14th days after the weaning.

Weaned piglets = assay: Example 1: feeding trial in weaned piglets, nucleic acid and/or glutamine added to starter feed; assay type: in vivo
Excerpt: Weaned piglets, 72 barrows and 72 gilts were used and divided into 4 groups (36 animals for each group, 6 replications with 6 animals per replication), namely a control group (C), a nucleic acid alone administration group (N), a glutamine alone administration group (G) and a nucleic acid+glutamine mixture administration group (N+G). Piglets were weaned at 17 days of age in average. Also, the N group was provided with an experimental feed prepared by adding commercially available ribonucleic acid extracted from beer yeast (manufactured by Kirin Brewery CO., LTD.) at 0.8% per feed weight to the starter feed, the G group with an experimental feed prepared by adding crystalline glutamine at 1.2% per feed weight to the starter feed, and the N+G group with an experimental feed prepared by adding ribonucleic acid and glutamine at 0.8% and 1.2%, respectively, per feed weight to the starter feed. After two weeks passed, a common diet was fed to all groups. Body weight and residual feed weight were measured to calculate feed intake, body weight gain and feed efficiency on the 7th, 14th, 21st and 28th days after the weaning.

Small Intestinal Villi = assay: Example 4: effect on recovery of small intestinal villi (villi length, crypt thickness by optical microscope); assay type: in vivo, piglets; settings: 7th day after weaning
Excerpt: 24 weaned barrows were used and divided into 4 groups (6 animals for each group), namely a control group (C), a nucleic acid alone administration group (N), a glutamic acid alone administration group (G) and a nucleic acid+glutamic acid mixture administration group (N+G). Piglets were weaned at 17 days of age in average. Also, the N group was provided with an experimental feed prepared by adding commercially available ribonucleic acid extracted from beer yeast (manufactured by Kirin Brewery CO., LTD.) at 0.8% per feed weight to the starter feed, the G group with an experimental feed prepared by adding crystalline glutamic acid at 1.2% per feed weight to the starter feed, and the N+G group with an experimental feed prepared by adding ribonucleic acid and glutamic acid at 0.12% of and 1.08%, respectively, per feed weight to the starter feed. On the 7th day after weaning, all piglets were sacrificed to collect the small intestines. After the preparation of tissue sections from the collected small intestines by a general procedure, the length of villi and the thickness of crypt were measured using optical microscope.

[3] = 8 to 14 days after weaning, not statistically significant

Compound: N[C@@H](CCC(=O)O)C(=O)O [G, glutamic acid]
- Average feed intake (weaned barrows [1]; 1 to 14 days (test feed)): 0.225 kg/day
- Body weight gain (weaned barrows [1]; 1 to 14 days (test feed)): 0.156 kg/day
- Feed efficiency (weaned barrows [1]; 1 to 14 days (test feed)): 1.453 Feed kg/Gain kg
- Average feed intake (weaned barrows [1]; 15 to 21 days (common feed)): 0.459 kg/day
- Body weight gain (weaned barrows [1]; 15 to 21 days (common feed)): 0.342 kg/day
- Feed efficiency (weaned barrows [1]; 15 to 21 days (common feed)): 1.333 Feed kg/Gain kg

Compound: NC(=O)CC[C@H](N)C(=O)O [G, glutamine]
- Average feed intake (weaned barrows [1]; 1 to 14 days (test feed)): 0.211 kg/day
- Body weight gain (weaned barrows [1]; 1 to 14 days (test feed)): 0.147 kg/day
- Feed efficiency (weaned barrows [1]; 1 to 14 days (test feed)): 1.439 Feed kg/Gain kg
- Average feed intake (weaned barrows [1]; 15 to 21 days (common feed)): 0.446 kg/day
- Body weight gain (weaned barrows [1]; 15 to 21 days (common feed)): 0.351 kg/day
- Feed efficiency (weaned barrows [1]; 15 to 21 days (common feed)): 1.280 Feed kg/Gain kg

Compound: ribonucleic acid
- Average feed intake (weaned barrows [2]; 0 to 7 days): 0.151^ab kg/day
- Body weight gain (weaned barrows [2]; 0 to 7 days): 0.102^b kg/day
- Feed efficiency (weaned barrows [2]; 0 to 7 days): 1.490 Feed kg/Gain kg
- Average feed intake (weaned barrows [2]; 8 to 14 days): 0.291 kg/day
- Body weight gain (weaned barrows [2]; 8 to 14 days): 0.234 kg/day
- Feed efficiency (weaned barrows [2]; 8 to 14 days): 1.252 Feed kg/Gain kg
- body weight gain per day compared with C group (in words) (weaned barrows [2]; [3]): further increased
- feed efficiency compared to the C group and G group (in words) (weaned barrows [2]; [3]): tendency to be improved
- body weight gain per day compared with the other groups (in words) (weaned barrows [2]; 7 days just after weaning): not different from the C group
- Average feed intake (Weaned piglets; 0 to 7 days): 0.159 kg/day
- Body weight gain (Weaned piglets; 0 to 7 days): 0.116 kg/day
- Feed efficiency (Weaned piglets; 0 to 7 days): 1.392 Feed kg/Gain kg
- Average feed intake (Weaned piglets; 0 to 28 days): 0.463 kg/day
- Body weight gain (Weaned piglets; 0 to 28 days): 0.281 kg/day
- Feed efficiency (Weaned piglets; 0 to 28 days): 1.648^bc Feed kg/Gain kg
- Average feed intake (Weaned piglets; 7 to 14 days): 0.377 kg/day
- Body weight gain (Weaned piglets; 7 to 14 days): 0.301 kg/day
- Feed efficiency (Weaned piglets; 7 to 14 days): 1.256 Feed kg/Gain kg
- Average feed intake (Weaned piglets; 14 to 21 days): 0.525 kg/day
- Body weight gain (Weaned piglets; 14 to 21 days): 0.274 kg/day
- Feed efficiency (Weaned piglets; 14 to 21 days): 1.945 Feed kg/Gain kg
- Average feed intake (Weaned piglets; 21 to 28 days): 0.797 kg/day
- Body weight gain (Weaned piglets; 21 to 28 days): 0.432 kg/day
- Feed efficiency (Weaned piglets; 21 to 28 days): 1.852 Feed kg/Gain kg
- Average body weight (Weaned piglets; 7 days after weaning, test feed days 0-14): 6.17 kg
- Average body weight (Weaned piglets; 14 days after weaning, test feed days 0-14): 8.28 kg
- Average body weight (Weaned piglets; 21 days after weaning, common diet after day 14): 10.20 kg
- Average body weight (Weaned piglets; 28 days after weaning, common diet after day 14): 13.23 kg
- Average body weight (Weaned piglets; at the time of weaning (baseline)): 5.36 kg
- improvement in feed efficiency compared to the C group (in words) (Weaned piglets; whole test period (0 to 28 days after weaning)): slight improvement in feed efficiency
- Crypt thickness (Small Intestinal Villi; Duodenum): 130^ab μm
- Villi length (Small Intestinal Villi; Duodenum): 385^b μm
- Crypt thickness (Small Intestinal Villi; Ileum): 128^b μm
- Villi length (Small Intestinal Villi; Ileum): 344^ab μm
- Crypt thickness (Small Intestinal Villi; Jejunum): 136^b μm
- Villi length (Small Intestinal Villi; Jejunum): 406^b μm
- villi length compared between groups (in words) (Small Intestinal Villi; duodenum, N and G vs C, N+G vs N and G): significantly longer
- crypt thickness compared with the C and G group (in words) (Small Intestinal Villi; jejunum and ileum): significantly thicker

— patent US6777396B2, “Feed for livestock” (Ajinomoto Co., Inc., priority 2000, dated 2004)
